Like-named read-outs stand apart in the source and are kept apart here.

By Km is commonly meant the concentration of substrate that gives half-maximal velocity.

In test [1] the test system is TR-iBRB2 cells. The test can be described thus: Effect of compounds on [3H]amantadine uptake by TR-iBRB2 cells. It counts as in vitro ADME, rat. The protocol: (§1) In 10% fetal bovine serum (FBS; Merck, Darmstadt, Germany)-containing Dulbecco’s modified Eagle’s medium (DMEM; Nissui Pharmaceutical, Tokyo, Japan) with 20 mM NaHCO3, 0.19 mM benzylpenicillin potassium, and 0.14 mM streptomycin sulfate, TR-iBRB2 cells (passage number 32–60) were cultured according to previous reports. As described previously, RPE-J cells (passage number 79-92) were cultured in DMEM with 4% FBS, 20 mM NaHCO3, and 0.1 mM non-essential amino acid (FUJIFILM Wako Pure Chemical, Osaka, Japan) containing 0.16 mM benzylpenicillin potassium and 0.17 mM streptomycin sulfate. In accordance with established protocols for the uptake study, the cells were seeded at a density of 1.0 × 10^5 cells/well onto a collagen I-coated 24-well plate (BioCoat™ Collagen I Cellware, Corning, Corning, NY, USA) and cultured for 2 days, at 33 °C, under 5% CO2/air. Referring to the previous reports, we started the uptake reaction, and the details of the procedure are included in the Supplemental Materials.
(§2) Cell/medium ratio = [^3H]compound (dpm) per cell protein (mg)/[^3H]compound (dpm) per medium (µL)(2) […]
(§3) 7.4) three times at 37°C.
(§4) and KHCO3, respectively. Cl--free ECF buffer was prepared by replacing equimolar
(§5) protein assay kit (Bio-Rad, Hercules, CA, USA).

Test [2] has as its system RPE-J cells. Briefly: Effect of compounds on [3H]amantadine uptake by RPE-J cells. Type of test: in vitro ADME, rat. The procedure:
as §1, §2, §3, §4, §5

Test [3] has as its system RPE-J cells. Briefly: Verapamil uptake by RPE-J cells, effect of amantadine. It counts as in vitro ADME, rat. The procedure: as §1
Cell/medium ratio = [^3H]compound (dpm) per cell protein (mg)/[^3H]compound (dpm) per medium (µL)(2)
Kinetic parameters for cell uptake, such as the maximal uptake rate (Vmax), Michaelis–Menten constant (Km), and non-saturable uptake clearance (Kd), were obtained by using the nonlinear least-squares regression analysis program (MULTI) with Equations (3)–(5), where the uptake rate of the test compound and its concentration were V and S, respectively. V = (Vmax × S)/(Km + S)(3) V = (Vmax × S)/(Km + S) + Kd × S(4) V = (Vmax1 × S)/(Km1 + S) + (Vmax2 × S)/(Km2 + S)(5) […]
as §3, §4, §5

Test [4] concerns TR-iBRB2 cells. The settings on record: read-out: Km for uptake by TR-iBRB2 cells; cited from earlier work.
The mark [5] stands for this setting: Rattus norvegicus, 0.05 h, read-out: [3H]amantadine uptake, % of Control, TR-iBRB2.
The mark [6] stands for this setting: Rattus norvegicus, 0.05 h, read-out: [3H]amantadine uptake, % of Control, RPE-J.
[7] abbreviates: compound 0.2 mM, [3H]amantadine 1.67 µM, 3 min, 37 °C.
Setting [8] is: compound 1.0 mM, [3H]amantadine 1.67 µM, 3 min, 37 °C.
Setting [9] is: compound 2.5 mM, [3H]amantadine 1.67 µM, 3 min, 37 °C.

Consider `N[C@@H](CCC(=O)O)C(=O)O` [L-Glutamic acid], for which the activity at 2500 µM in the test with TR-iBRB2 cells [1] (setting [5]) worked out at 80.2 ± 10%; in the test with RPE-J cells [2] (setting [6]), 84.5 ± 16.4%.

For the compound `CN(C)CCCN1c2ccccc2CCc2ccccc21` [Imipramine], the activity at 200 µM in the test with TR-iBRB2 cells [1] (setting [5]) stood at 8.37 ± 1.43%; in the test with RPE-J cells [2] (setting [6]), 16.9 ± 5.2%.

As to `C=C[C@H]1C[N@@]2CC[C@H]1C[C@@H]2[C@@H](O)c1ccnc2ccc(OC)cc12` [Quinidine], in the test on TR-iBRB2 cells [1] (setting [7]), the “[3H]amantadine uptake, % of Control, TR-iBRB2” value is recorded as 13.7 ± 1.8 % of Control. Also, in the test on RPE-J cells [2] (setting [7]), the “[3H]amantadine uptake, % of Control, RPE-J” value is on record as 34.1 ± 3.0 % of Control.

Turning to `CC(C)(C)NC[C@H](O)COc1nsnc1N1CCOCC1` [Timolol], the “[3H]amantadine uptake, % of Control, TR-iBRB2” value in the test with TR-iBRB2 cells [1] (setting [7]) is on record as 34.6 ± 10.6 % of Control. The “[3H]amantadine uptake, % of Control, RPE-J” value in the test on RPE-J cells [2] (setting [7]) was 59.1 ± 5.1 % of Control.

On to `COc1ccc(CCN(C)CCCC(C#N)(c2ccc(OC)c(OC)c2)C(C)C)cc1OC` (stereo not drawn) [Verapamil], for which, in the test with TR-iBRB2 cells [1], the “[3H]amantadine uptake, % of Control, TR-iBRB2” value is given as 22.1 ± 6.2 % of Control. The “[3H]amantadine uptake, % of Control, RPE-J” value in the test with RPE-J cells [2] was 20.5 ± 4.8 % of Control. For the same compound, in the test with RPE-J cells [3], the Km was found to be 55.6 ± 5.2 µM, the Vmax is reported as 6.31 ± 0.35 nmol/(min·mg protein) and the “reduction of [3H]verapamil uptake by unlabeled verapamil” value is on record as 86%.

Take `CC[N+](CC)(CC)CC` [TEA, tetraethylammonium]: in the test with TR-iBRB2 cells [1], the “[3H]amantadine uptake, % of Control, TR-iBRB2” value is recorded as 117 ± 45 % of Control. Besides, the “[3H]amantadine uptake, % of Control, RPE-J” value is 87.7 ± 11.8 % of Control in the test with RPE-J cells [2] (setting [7]) and 81.8 ± 10.3 % of Control with RPE-J cells [2] (setting [8]).

As to `CN/C(=N/CCSCc1nc[nH]c1C)NC#N` [Cimetidine], in the test on TR-iBRB2 cells [1], the “[3H]amantadine uptake, % of Control, TR-iBRB2” value is recorded as 97.6 ± 24.7 % of Control. For the same compound, the “[3H]amantadine uptake, % of Control, RPE-J” value in the test with RPE-J cells [2] (setting [7]) is listed as 106 ± 5 % of Control.

Take `N#CC(C#N)=NNc1ccc(OC(F)(F)F)cc1` [FCCP, carbonyl cyanide-p-trifluoromethoxyphenylhydrazone]: the “decrease of [3H]amantadine uptake” value in the test on TR-iBRB2 cells [1] turned out to be 50%.

As to `C[n+]1ccc(-c2ccccc2)cc1` [MPP^+, 1-methyl-4-phenylpyridinium], in the test with TR-iBRB2 cells [1] (setting [7]), the “[3H]amantadine uptake, % of Control, TR-iBRB2” value is 106 ± 31 % of Control. The figures for the “[3H]amantadine uptake, % of Control, RPE-J” value in the test with RPE-J cells [2] (setting [7]) and in the test with RPE-J cells [2] (setting [8]) were 75.5 ± 5.0 % of Control and 91.9 ± 5.6 % of Control, respectively.

For the compound `CC(C)NCC(O)COc1cccc2ccccc12` (stereo not drawn) [Propranolol], in the test with TR-iBRB2 cells [1] (compound 0.2 mM), the “reduction of [3H]amantadine uptake by TR-iBRB2 cells” value is reported as “more than 58%”. Also, in the test with TR-iBRB2 cells [1] (setting [7]), the “[3H]amantadine uptake, % of Control, TR-iBRB2” value is 8.61 ± 0.75 % of Control. Besides, the “[3H]amantadine uptake, % of Control, RPE-J” value with RPE-J cells [2] (setting [7]) is 15.7 ± 5.9 % of Control. Further, the Km with TR-iBRB2 cells [4] is 237 µM.

As for `N=C(N)NCCC[C@H](N)C(=O)O` [L-Arginine], the activity at 2500 µM in the test with TR-iBRB2 cells [1] (setting [5]) is 127 ± 15%; in the test on RPE-J cells [2] (setting [6]), 150 ± 38%.

`CCN1/C(=C/c2ccc3ccccc3[n+]2CC)C=Cc2ccccc21.[I-]` [Decynium-22]: in the test on TR-iBRB2 cells [1] (setting [7]), the “[3H]amantadine uptake, % of Control, TR-iBRB2” value is reported as 106 ± 31 % of Control. Besides, the “[3H]amantadine uptake, % of Control, RPE-J” value with RPE-J cells [2] (setting [7]) was 86.7 ± 41.9 % of Control; in the test with RPE-J cells [2] (compound 0.5 mM, [3H]amantadine 1.67 µM, 3 min, 37 °C), 136 ± 8 % of Control.

In the case of `CC(C)C[C@H](N)C(=O)O` [L-Leucine], the “[3H]amantadine uptake, % of Control, TR-iBRB2” value in the test on TR-iBRB2 cells [1] (setting [9]) is recorded as 112 ± 17 % of Control. Further, the “[3H]amantadine uptake, % of Control, RPE-J” value with RPE-J cells [2] (setting [9]) is 113 ± 16 % of Control.
